Measured values published in patent publication US20230012368A1 (Hoffmann-La Roche Inc., priority 2018, published 2023).
Counter-ions that a name gives are not always drawn.

These compounds were tested on Acinetobacter baumannii ATCC 17978 (assay: Antimicrobial susceptibility testing: 90% growth inhibitory concentration (IC90) determination). Conditions: Acinetobacter baumannii, ATCC17978, 16 h, 90% growth inhibitory concentration; Acinetobacter baumannii ATCC17978; Iso-Sensitest broth, OD 600 nm over 16h; read-out: ATCC17978 IC90.
Format: cell-based
Summary of the method: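 Compounds serially twofold diluted (e.g. 50 to 0.097 μM final) in Iso-Sensitest broth, inoculated at ~5×10^(5) CFU/ml, incubated at 35±2° C. OD600 read every 20 minutes over 16h. IC90 taken as concentration inhibiting 90% of growth during logarithmic phase.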

Compared with `COc1ccc(-c2cnc3c(Nc4ccc(C(=O)N(CCN5CCNCC5)CC(F)F)c(C)c4)nccn23)cc1F` [Example 175, N-(2,2-difluoroethyl)-4-[[3-(3-fluoro-4-methoxyphenyl)imidazo[1,2-a]pyrazin-8-yl]amino]-2-methyl-N-(2-piperazin-1-ylethyl)benzamide;hydrochlo-ride], `Cc1cc(Nc2nccn3c(-c4ccc(OC(F)F)cc4)cnc23)ccc1C(=O)N(C)CCN1CCCCC1` [Example 265, 4-[[3-[4-(difluoromethoxy)phenyl]im-idazo[1,2-a]pyrazin-8-yl]amino]-N,2-dimethyl-N-(2-piperidin-1-ylethyl)benzamide] is 2.2-fold higher in IC90: 2300 nM for the first, 5100 nM for the second.

Going from `Cc1cc(Nc2nccn3c(-c4ccc(OC(F)F)cc4)cnc23)ccc1C(=O)NCC1CCN(C(=N)N)CC1` [Example 24, N-((1-carbamimidoyl-piperidin-4-yl)methyl)-4-((3-(4-(difluoromethoxy)phenyl)imidazo[1,2-a]pyrazin-8-yl)amino)-2-methylbenzamide] to `Cc1cc(Nc2nccn3c(-c4ccc(OC(F)F)cc4)cnc23)ccc1C(=O)NC[C@@H](C)N` [Example 268, N-[(2R)-2-aminopropyl]-4-[[3-[4-(difluoromethoxy)phenyl]im-idazo[1,2-a]pyrazin-8-yl]amino]-2-methylbenzamide;hydrochlo-ride], the IC90 rises from 340 nM to 5600 nM (16-fold).

Compared with `CCc1cc(Nc2nccn3c(-c4ccc(Oc5ccc(F)cn5)c(F)c4F)cnc23)ccc1C(=O)NCCNC(=O)[C@H](N)CCNC(=N)N` [Example 429, N-[2-[[(2R)-2-amino-4-guanidino-butanoyl]amino]ethyl]-4-[[3-[2,3-difluoro-4-[(5-fluoro-2-pyridyl)oxy]phenyl]imidazo [1,2-a]pyrazin-8-yl]amino]-2-ethyl-benzamide; formic acid], `CCc1cc(Nc2nccn3c(-c4ccc(OCC#N)c(F)c4Cl)cnc23)ccc1C(=O)NCCNC(=O)[C@H](N)CCCNC(=N)N` [Example 127, N-[2-[[(2R)-2-amino-5-guanidino-pentanoyl]amino]ethyl]-4-[[3-[2-chloro-4-(cyanomethoxy)-3-fluoro-phenyl]imidazo[1,2-a]pyrazin-8-yl]amino]-2-ethyl-benzamide formate] is 6.9-fold lower in IC90: 620 nM for the first, 90 nM for the second.

Going from `COc1ccc(-c2cnc3c(Nc4ccc(C(=O)NCCNC(=O)[C@@H]5C[C@@H](O)CN5)c(C)c4)nccn23)c(F)c1F` [Example 363, (2S,4R)-N-[2-[[4-[[3-(2,3-difluoro-4-methoxyphenyl)imidazo[1,2-a]pyrazin-8-yl]amino]-2-methylbenzoyl]amino]ethyl]-4-hydroxypyrrolidine-2-carboxamide] to `CCc1cc(Nc2nccn3c(-c4ccc(OC)c(F)c4F)cnc23)ccc1C(=O)NCC1(O)CCNC1` (stereo not shown) [Example 528, 4-((3-(2,3-difluoro-4-methoxyphenyl)imidazo[1,2-a]pyrazin-8-yl)amino)-2-ethyl-N-((3-hydroxypyrrolidin-3-yl)methyl)benzamide hydrochloride], the IC90 rises from 90 nM to 250 nM (2.8-fold).

First: CCc1cc(Nc2nccn3c(-c4ccc(OC)c(F)c4F)cnc23)ccc1C(=O)NCCCNC(=O)[C@H](CCCNC(=N)N)NC(=O)[C@@H](N)CCC(=O)O [Example 156, (S)-4-amino-5-(((S)-1-((3-(4-((3-(2,3-difluoro-4-methoxyphenyl)imidazo[1,2-a]pyrazin-8-yl)amino)-2-ethylbenzamido)propyl)amino)-5-guanidino-1-oxopentan-2-yl)amino)-5-oxopentanoic acid trihydrochloride]
Second: COc1ccc(-c2cnc3c(Nc4ccc(C(=O)N(C)CCC5CCNCC5)c(C)c4)nccn23)c(F)c1F [Example 63, 4-((3-(2,3-difluoro-4-methoxyphenyl)imidazo [1,2-a]pyrazin-8-yl)amino)-N,2-dimethyl-N-(2-(piperidin-4-yl)ethyl)benzamide]
The IC90 of the first is 3.8-fold higher: 340 nM for the first, 90 nM for the second.
